The test system of one test is GLS1. In words: GLS1 expression analysis (ELISA) in KKLS. It is filed as cell-based. The following applies: human gastric undifferentiated carcinoma cells (KKLS), at least 200 µg/mL or more, 24 hours; effect increased from 200 to 1000 µg/mL; Fig. 12. On the procedure: Human gastric undifferentiated carcinoma cells (KKLS) were cultured in RPMI 1640 (manufactured by Nissui Pharmaceutical Co., Ltd.) containing 10% FBS. The cultured cells were collected by trypsin treatment. The collected cells were seeded in a 6-well plate, and when they reached 100% confluence, RPMI 1640 containing the test sample (2'-FL and lactose) at 50 µg/mL, 200 µg/mL, or 1000 µg/mL was added, and cultured for 24 hours in a 37°C, 5% CO2 incubator. The culture supernatant was removed, the cells were washed twice with PBS, and 0.20 mL of RIPA buffer was added to extract total protein. Protein in each protein extract was quantified by the Bradford assay.
Protein extracts were collected in the same manner as in [Example 10-1 B. Human gastric undifferentiated carcinoma cells (KKLS)], [Example 10-1 C. Mouse microglial cells (BV2)], [Example 10-1 D. Human gingival fibroblasts (Gin-1)], and [Example 10-1 E. Human umbilical vein endothelial cells (HUVEC)], respectively, except that a medium same as the above-mentioned medium but not containing the test sample was used instead of the medium containing the test sample, and protein in each protein extract was quantified by the Bradford assay.
An ELISA method was performed using an antibody against GLS1 to measure the amount of GLS1 in the samples. […]
(An ELISA detects its analyte on a solid surface through an enzyme-linked reagent.)

In another test the test system is type I collagen. Description: Type I collagen expression analysis (ELISA). It is filed as cell-based, Human. To be noted: at a concentration of at least 100 µg/mL or more, 48 hours; effect increased from 100 µg/mL to 200 µg/mL; Fig. 9. On the procedure: Human normal dermal fibroblasts (NB1RGB) with a PDL of 30 or less were cultured in DMEM (Dulbecco's Modified Eagle Medium, manufactured by Nissui Pharmaceutical Co., Ltd.) containing 10% FBS. The cultured cells were collected by trypsin treatment. The collected cells were seeded in a 96-well plate, and when they reached 100% confluence, FBS-free DMEM containing the test sample (2'-FL and sucrose) at 50 µg/mL, 100 µg/mL, or 200 µg/mL was added, and after culturing for 48 hours in a 37°C, 5% CO2 incubator, the culture supernatant was collected. The culture supernatant was centrifuged, and the resulting supernatant was used as a sample.
The culture supernatant was collected and used as a sample in the same manner as in [Example 8-1], except that FBS-free DMEM not containing the test sample was used instead of FBS-free DMEM containing the test sample.
An Enzyme-Linked Immunosorbent Assay (ELISA) method was performed using an antibody against type I collagen to measure the amount of type I collagen in the samples. […] After stopping the reaction, the absorbance at a measurement wavelength of 450 nm was measured using a microplate reader. […] The relative value of the type I collagen amount when each test sample was added was calculated, with the type I collagen amount in the control set to 1.

In the next test the test system is laminin. In words: Laminin secretion amount (ELISA) of tunicamycin-treated epidermal keratinocytes. To be noted: HaCaT, tunicamycin 0.1 µg/mL, 50 µg/mL to 200 µg/mL, 24 hours; recovery increased as content increased; Fig. 7. It is filed as cell-based, Human. On the procedure:
Human normal epidermal keratinocytes (HaCaT) were cultured using DMEM containing 10% FBS. The cultured cells were collected by trypsin treatment. The collected cells were seeded in a 24-well plate, and when they reached 100% confluence, tunicamycin was added at 0.1 µg/mL, and after 24 hours, the culture supernatant was collected. A group was also prepared in which FBS-free DMEM medium containing a test sample (2'-fucosyllactose) at 50 µg/mL, 100 µg/mL, or 200 µg/mL was added simultaneously with tunicamycin, and after 24 hours, the culture supernatant was collected. The culture supernatant was centrifuged, and the resulting supernatant was used as a sample. […] This total cell protein concentration was measured by the Bradford assay.
Human normal epidermal keratinocytes were cultured and the culture supernatant was collected in the same manner as in Example 6-1, except that tunicamycin and the test sample were not added. […] This total cell protein concentration was measured by the Bradford assay.
An Enzyme-Linked Immunosorbent Assay (ELISA) method was performed using an antibody against laminin to measure the amount of laminin in the sample. […] After stopping the reaction, the absorbance at a measurement wavelength of 450 nm was measured with a microplate reader. […]

Molecules are shown by their SMILES.

For the compound `C[C@@H]1O[C@@H](O[C@H]2[C@H](O[C@H]3[C@H](O)[C@@H](O)C(O)O[C@@H]3CO)O[C@H](CO)[C@H](O)[C@@H]2O)[C@@H](O)[C@H](O)[C@@H]1O` (stereo partly drawn) [2'-FL, 2'-fucosyllactose], in the test with GLS1, the GLS1 expression result is given as “suppressed GLS1 expression”. In the test with type I collagen, the “expression level of type I collagen” value is listed as “increased the expression level of type I collagen”. For the same compound, the laminin secretion entry in the test with laminin is recorded as “restored laminin secretion”.
